Data taken from the supplement of paper PMC10290057.
Where “and” joins values, the source holds several entries; their conditions need not be identical. Identical values can stand only once. Counter-ions that a name gives are not always drawn.

Test system: HCT116
Assay: efficacy (fitted maximal change in viability relative to DMSO control); higher = less cytotoxic (negative = loss of viability)
Details: 48 h
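Note: Luminescence-based viability readout, five doses per compound, normalized against on-plate DMSO and empty-well controls, followed by dose-response curve fitting for every drug.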

Row | SMILES | efficacy
1 | CN(CCOc1ccc(C[C@H](Nc2ccccc2C(=O)c2ccccc2)C(=O)O)cc1)c1ccccn1 [GW-1929] | -7.57%
2 | O=C(O)c1nn(Cc2ccc(Cl)cc2Cl)c2ccccc12 [Lonidamine] | -7.79%
3 | O=C(CCN1CCN(C(=O)OCc2cc(Cl)cc(Cl)c2)CC1)c1ccc2[nH]c(=O)oc2c1 [PF-8380] | -11.3%
4 | CC(C)[C@H](C(=O)Nc1ccc(C(=O)NO)cc1)c1ccccc1 [AR-42] | -43.8%
5 | COc1ccc(CCC(=O)Nc2nc3ccc(Cl)cc3s2)cc1OC | -14.1%
6 | OC[C@H]1O[C@@H](OC2=CC3=C(C=C2)C(=O)\C(=C/O3)C4=CC=C(O)C=C4)[C@H](O)[C@@H](O)[C@@H]1O [Daidzin] | -23.3%
7 | C=C1C(=O)OC(CCCCCCCC)C1C(=O)O (configuration not stated) [C75] | -6.41%
8 | CCN(CC)CCOc1ccc(Cc2ccccc2)cc1 [Tesmilifene hydrochloride] | -27%
9 | N#Cc1ccc(Oc2ccc3c(c2)COB3O)cc1 [AN-2728] | -21.2%
10 | C=C(c1ccc(C(=O)O)cc1)c1cc2c(cc1C)C(C)(C)CCC2(C)C [Bexarotene] | -19.6%
11 | CC(C)(Oc1ccc(C2CC2(Cl)Cl)cc1)C(=O)O (configuration not stated) [Ciprofibrate] | -6.71%
12 | CCOc1ccccc1N/N=C1/C(=O)N(c2nc(-c3ccccc3)cs2)N=C1C [BAM-7] | -7.98%
13 | CC1=C(F)C=CC(=C1)N2C(=O)\C=C/C3=C2C4=C([NH]C=C4)N=C3 [STK16-IN-1] | -45.7%
14 | COC1=CC=C(Cl)C=C1\C2=C\C(=O)NC(=S)N2CC(N)=O | -13.9%
15 | CCN(C1CCOCC1)C2=C(C)C(=CC(=C2)C3=CC=C(CN4CCOCC4)C=C3)C(=O)NC\C5=C(C)\C=C(C)/NC5=O [Tazemetostat] | -59%
16 | Cn1cc(/C=C2\C(=O)Nc3cccnc32)c2ccccc21 | -35.8%
17 | CN1CC[C@@H](NC(=O)Nc2ccc(C#N)cc2)C[C@@H]1c1nc2ccccc2[nH]1 [Glasdegib] | -8.71%
18 | O=C(O)[C@@H](c1ccc(OCc2ccc3ccccc3n2)cc1)C1CCCC1 [Veliflapon] | -10.1%
19 | CCN[C@H]1C[C@H](C)[S+](=O)([O-])c2sc([S+](N)(=O)[O-])cc21 [Dorzolamide hydrochloride] | -11%

Row | SMILES | efficacy
20 | CN(CCOc1ccc(N[S+](C)(=O)[O-])cc1)CCc1ccc(N[S+](C)(=O)[O-])cc1 [Dofetilide] | -5.68%
21 | CCCCC[C@H](O)/C=C/[C@H]1[C@H](O)CC(=O)[C@@H]1C/C=C\CCCC(=O)O [Prostaglandin E2] | -28.6%
22 | CCN(CC)CCN1C(=O)\C(=N/C2=CC=CC=C12)CC3=CC=C(OC)C=C3 [Caroverine] | -15.9%
23 | C[C@@H]\1CC(=O)N\N=C1C2=CC=C(NN=C(C#N)C#N)C=C2 [Levosimendan] | -64.6%
24 | N#Cc1c(N(CC(=O)[O-])CC(=O)[O-])sc(C(=O)[O-])c1CC(=O)[O-] [Strontium Ranelate] | -15.5%
25 | COC(=O)Nc1nc2cc(C(=O)c3ccccc3)ccc2[nH]1 [Mebendazole] | -65.1%
26 | CC1=C(/C=C/C(C)=C/C=C/C(C)=C\C(=O)O)C(C)(C)CCC1 [Isotretinoin] | -13.5%
27 | COc1nc(-c2ccc3c(c2)OCO3)n(-c2ccc(NC(=O)CSc3ccccc3)cc2)n1 [Secin H3] | -15.5%
28 | O=C(NCC1CCCCN1)c1cc(OCC(F)(F)F)ccc1OCC(F)(F)F (configuration not stated) [Flecainide acetate] | -24.2%
29 | COc1cc(CNC(=O)CCCC/C=C/C(C)C)ccc1O [Capsaicin] | -16.7%
30 | Cn1cc(-c2c[nH]c3ncnc(N4CCOCC4)c23)cn1 | -31.9%
31 | CCOC(=O)C(C#N)C\1C2=CC(=CC=C2O\C(=C1C(=O)OCC)N)Br (configuration not stated) [HA-14-1] | -8.15%
32 | CCOC(=O)c1c(/C(C#N)=C\N)c2ccc(Cl)c(Cl)c2n1C [KH-CB19] | -9.36%
33 | CN1CCN(C(=O)c2ccc(-c3ccc4c(C=O)c(O)ccc4c3)s2)CC1 [MKC-3946] | -13.9%
34 | Cc1cc(NC(=O)Nc2ccc(N(C)C)cc2)c2cc(F)cc(F)c2n1 | -37.6%
35 | CC[C@H](C)[N]1C=C(C)C2=C1C=C(C=C2C(=O)NC\C3=C(C)\C=C(\C)NC3=O)C4=CC=C(N=C4)N5CCNCC5 [GSK-126] | -125%
36 | COc1ccnc(C[S+]([O-])c2nc3cc(OC(F)F)ccc3[nH]2)c1OC (configuration not stated) [Pantoprazole] | -34.5%
37 | Cc1cnc(NC(=O)c2cc(Oc3cnc(C(=O)N(C)C)nc3)c3cc(C)oc3c2)cn1 | -6.07%
38 | CN1CCN(c2ccc([N+](=O)[O-])c3no[n+]([O-])c23)CC1 | -19.8%

Row | SMILES | efficacy
39 | C[C@H]1C[C@H]2[C@@H]3CC[C@](O)(C(=O)CO)[C@@]3(C)C[C@H](O)[C@@H]2[C@@]\4(C)/C=C\C(=O)\C=C14 [Methylprednisolone] | 20%
40 | C=C1/C(=C\C=C2/CCC[C@]3(C)[C@@H]([C@H](C)CCCC(C)(C)O)CC[C@@H]23)C[C@@H](O)C[C@@H]1O [Calcitriol] | -65% and -62.8%
41 | COC(=O)C1=C(C)NC(C)=C(C(=O)OCCN2CCN(C(c3ccccc3)c3ccccc3)CC2)C1c1cccc([N+](=O)[O-])c1.Cl.Cl (configuration not stated) [Manidipine] | -75%
42 | C[C@](N)(Cc1ccc(O)c(O)c1)C(=O)O [Methyldopa] | -16.9%
43 | CCCCOCCOc1nc(-c2ccc(C(=O)O)c(F)c2)sc1C | -10%
44 | CNC(=O)c1ccc(N2C(=S)N(c3ccc(C#N)c(C(F)(F)F)c3)C(=O)C2(C)C)cc1F [Enzalutamide] | -37%
45 | CCN(CC)CCCC[C@H](NC(=O)[C@H](CC(C)C)NC(=O)[C@H](C)NC(=O)[C@H](Cc1ccccc1)NC(=O)c1ccc(C(C)(C)C)cc1)C(=O)N[C@@H](CO)C(=O)OC [UNC-3866] | -18.9%
46 | OC1=CC=C(C=C1)\C2=C\OC3=C(C=CC(=C3)O)C2=O [Daidzein] | 12.4%
47 | O=C(c1ccc(N[S+](=O)([O-])c2cccc3cccnc23)cc1)N1CCN(CC2CC2)CC1 [Mitapivat] | -18.2%
48 | O=C\1N(N\C=C1[N]2C=CN=N2)C3=NC=NC(=C3)N4CCOCC4 [Molidustat] | -58.6%
49 | COc1cc2c(cc1OC)CN(CCc1ccc(NC(=O)c3cc(OC)c(OC)cc3NC(=O)c3cnc4ccccc4c3)cc1)CC2 [Tariquidar] | -11.3%
50 | CC[C@H](NC(C)C)[C@H](O)C1=CC=C(O)C2=C1\C=C/C(=O)N2 [Procaterol hydrochloride] | 6.79%
51 | CC[C@H](NC1=C2N=C[NH]C2=NC=N1)C/3=N/C4=C(C(=CC=C4)F)C(=O)N3C5=CC=CC=C5 [Idelalisib] | -25.3%
52 | C[C@]12CC[C@@H]3c4ccc(O)cc4CC[C@H]3[C@@H]1C[C@@H](O)[C@@H]2O [Estriol] | -52.3%
53 | Oc1ccc(Nc2nc(-c3ccc(Cl)cc3)cs2)cc1 [SKI-II] | -62.8%
54 | N#C[C@@H]1C[C@@H]2C[C@@H]2N1C(=O)[C@@H](N)C12CC3CC(CC(O)(C3)C1)C2 [Saxagliptin] | -9.01%
55 | NC(=S)N/N=C/c1ncccc1N [Triapine] | -21.4%
56 | O=C1NC(=O)/C(=C/c2ccc(-c3ccc(F)cc3O)o2)S1 | -29.8%
57 | OC(=O)C/1=C/C(=O)NC(=O)N1 [Orotic acid] | -16.5%
